{"source": "patent US9675598B2", "about": "“Compositions of tolperisone” (SANOCHEMIA PHARMAZEUTIKA AG, priority 2007, dated 2017)", "key": {"[1]": {"assay": "4-MMPPO content after standard single recrystallization of tolperisone (Example 2)", "format": "physicochemical", "method": "All samples used in the analytical sequence were prepared for analysis as follows. Sample were homogenized if necessary (e.g., tablets) and weighed. For each tolperisone sample, approximately 20 mg of sample was added into a 20 mL flask. 20 mL of 50 mM HCl in MeOH was added to the flask, which was then placed in an ultrasonic bath for about 5 minutes. The contents of the flask were mixed on a vortexer for about 20 seconds. In instances in which the tolperisone sample had initially been in tablet form, the solution was then centrifuged at 4000 rpm for 2 minutes. 200 μL of the sample was then transferred into a small conical centrifuge vial. 20 μL of an internal standard solution containing deuterated 4-MMPPO, 200 μL of buffer at pH 1, and 0.4 mL of diisopropyl ether (DIPE) were added to the vial. The sample was then extracted by vortexing with a DVX-2500 multi-tube vortexer (2100 rpm) for about 2 minutes (cycle: 5 seconds run, 1 second pause time) and centrifugation (phase separation) at 4000 rpm for 2 minutes. 150 μL of 50 mM HCl in MeOH/DMSO (½) was added into empty designated conical autosampler vials. After centrifugation, 100 μL of supernatant was transferred into these conical autosampler vials. The vials were crimped and vortexed with a DVX-2500 multi-tube vortexer (2100 rpm) for about 1 minute. […]"}, "[2]": {"assay": "4-MMPPO content after recrystallization using acidified solvent system (Example 5)", "format": "physicochemical", "details": "1% (v/v) concentrated aqueous HCl added to the recrystallization mixture", "method": "Crude tolperisone was dissolved in an 85:15 (v/v) mixture of 2-butanone (MEK) and isopropanol, accompanied by addition of 1% HCl under reflux for 12 hours. The temperature was decreased to 80° C. and the solution filtered while hot. The solution was cooled to 5° C. and stirred for 7 h at 5° C.\nThe crystalline precipitate was separated by filtering, washed with isopropanol, and subsequently dried in vacuo at 45 to 85° C., with lower drying temperatures being preferred.\nWhen 1% (v/v) concentrated aqueous HCl was added to the recrystallization mixture, 4-MMPPO levels dropped below 6.6 ppm in the final recrystallized tolperisone product."}}, "data": [{"smiles": "Cc1ccc(C(=O)C(C)CN2CCCCC2)cc1", "note": "(stereo not drawn) [tolperisone, 2-methyl-1-(4-methylphenyl)-3-(piperidinyl)-1-propanone]", "values": [{"measurement": "4-MMPPO content of recrystallized product", "setting": "[1]; ppm as printed", "result": 1400, "unit": "ppm"}, {"measurement": "4-MMPPO content, subsequent production batches", "setting": "[1]; subsequent production batches", "result": "< 0.05", "unit": "%"}, {"measurement": "4-MMPPO levels in the final recrystallized tolperisone product", "setting": "[2]", "result": "below 6.6 ppm"}]}]}
